# In patent US11234943B2, “Use of reservatrol for the treatment of non-alcoholic fatty liver disease (NAFLD)” (priority 2016, dated 2022):
# Values joined by “and” are separate entries in the source; they are usually repeats but may differ in a detail not shown here. Equal values may be shown once.
# Assays:
# [1] = tested on: patients with NAFLD; experiment: Quantitative ultrasound liver/kidney echo measurement (liver fat), hepatic/renal value; assay type: in vivo, human; set-up: key to Difference (Liver Value − Kidney Value): hepatic minus renal cortex mean gray scale (US hepatic/renal value); key to Liver Value / Kidney Value: mean gray scale value of pixels within the ROI (echo intensity)
# Excerpt: A GE Log IQ5 expert Ultrasound Machine equipped with Ultrasound Transducer Probe (GE 3.5C model 2050357) The equipment can measure the Echo Level (EL) at specific areas and depths. EL measures the mean intensity of pixels within a user defined area (region of interest). Raw data provides the average sum (intensity per pixel)/pixels. The ultrasound depicts on screen the area (in cm^2), mean (intensity dB) and standard deviation (dispersion) Phantom Model 040GSE (CIRS-Multi Purpose, Multi Tissue u/s Phantom) to calibrate the Log IQ. The specific phantom simulates the human liver and kidney organs and serves for calibration.
# Regarding the parameters “liver/kidney value” and “liver/kidney depth” we used the same methodology used by Ming-Feng Xia et al., Standardized Ultrasound Hepatic/Renal Ratio and Hepatic Attenuation Rate to Quantify Liver Fat Content: An Improvement Method 10.1038/oby.2011.302.
# Ultrasound studies were performed by an experienced radiologist who was unaware of the patient's clinical details and laboratory findings. All the instrument settings, including gain and depth were fixed for each measurement. For assessment of ultrasound hepatic/renal echo value, ultrasound images with both liver and right kidney clearly visualized were obtained in the sagittal liver/right kidney view in the lateral position. A region of interest (ROI) was carefully selected excluding blood vessels, bile ducts and other focal hypoechoic or hyperechoic regions. Another ROI was identified in the right renal cortex with no large vessels, renal sinus or medulla. To avoid the interference of depth-depended echo-intensity attenuation and the borderline echo distorting effects, the boundary between liver and right kidney area should be placed near the center of the image, and the liver and right kidney ROIs were selected at the same depth of the ultrasound images. The gray scale mean value of the pixels within the two ROIs was used as measurement of echo intensity then we subtracted the average hepatic gray scale by the average renal cortex gray scale to calculate the US hepatic/renal value.
# Standardization of ultrasound quantitative parameters was performed using an abdominal phantom.
# Attenuation measurements were taken at 2 depths, at the Regions of Interest (ROI) xxcm (liver) and yycm (kidney). Attenuation was calculated by subtracting the EL (liver)−EL (kidney)=Hepato-Renal Index Difference.
# In sagittal liver/right kidney view, a region of interest (ROI) of 1.5×1.5 cm (1,296 pixels) in the liver parenchyma was selected. The ROI had to be as uniform as possible, excluding blood vessels, bile ducts, and other focal hypo/hyper-echogenicity. Another ROI of 0.5×0.5 cm (144 pixels) was identified in the right renal cortex with no large vessels, renal sinus or medulla. To avoid the interference of depth-depended echo-intensity attenuation and the borderline echo distorting effects, the boundary between liver and right kidney area should be placed near the center of the image, and the liver and right kidney ROIs were selected at the same depth of the ultrasound images. The gray scale mean value of the pixels within the two ROIs was used as measurement of echo intensity. Then we subtracted the average hepatic gray scale by the average renal cortex gray scale to calculate the US hepatic/renal value.
# To standardize the measured values of US H/R value and hepatic echo-intensity attenuation rate among different ultrasound machines, a 3D abdominal phantom, containing mimic abdominal organs, was used for standardization in this research.
# Then, the patients were divided into two groups (randomly assigned) according to the treatment given to them. 22 patients were given treatment 50 mg RSV micronized formulation, Evelor capsules once daily, (Group A) and 22 patients were given treatment 200 mg RSV micronized formulation, Evelor capsules, once daily, (Group B). The observation period lasted for 6 months. […]
# [2] = tested on: patients with NAFLD; experiment: Adverse reactions during the 6-month study; assay type: in vivo, human; details: 50 mg or 200 mg once daily, 6 months
# Experimental: Quantitative fat measurement, with ultrasound on the liver and kidney, were carried out. There was an initial measurement (time 1) and one after six months (time 2). […] As will be apparent, the results were highly positive, see the difference (Liver value Kidney Value) which is decreased during the time, even 2.5 years after the end of the study.
# Then, the patients were divided into two groups (randomly assigned) according to the treatment given to them. 22 patients were given treatment 50 mg RSV micronized formulation, Evelor capsules once daily, (Group A) and 22 patients were given treatment 200 mg RSV micronized formulation, Evelor capsules, once daily, (Group B). The observation period lasted for 6 months. There was a clinical examination, blood tests and an abdominal ultrasound at the beginning of the study (time 1) and in 6 months (time 2). All patients were on low fat diet and they were being followed up by nutritionist.
# [3] = tested on: subjects with non-alcoholic fatty liver disease; details: two 150 mg capsules twice daily for three months, cited from earlier work
# [4] = tested on: NAFLD patients; details: meta-analysis of four trials, 156 patients, cited from earlier work
# [5] = Group A, 50 mg once daily, mean at time 1 (beginning of study)
# [6] = Group A, 50 mg once daily, mean at time 2 (6 months)
# [7] = Group B, 200 mg once daily, mean at time 1 (beginning of study)
# [8] = Group B, 200 mg once daily, mean at time 2 (6 months)
# [9] = individual patients of Group A (50 mg), first ultrasound, 0 month
# [10] = individual patients of Group A (50 mg), fourth ultrasound, 2.5 years from the end of the study
# [11] = individual patients of Group A (50 mg), second ultrasound, 6 months
# [12] = individual patients of Group A (50 mg), third ultrasound, 6 months after the end of the study
# [13] = individual patients of Group B (200 mg), first ultrasound, 0 month
# [14] = individual patients of Group B (200 mg), fourth ultrasound, 2.5 years from the end of the study
# [15] = individual patients of Group B (200 mg), second ultrasound, 6 months
# [16] = individual patients of Group B (200 mg), third ultrasound, 6 months after the end of the study
compound,measurement,setting,value
"Oc1ccc(/C=C/c2cc(O)cc(O)c2)cc1 [Resveratrol, resveratrol]",Difference L − K value,[1]; [5],22.71
same,Kidney Value,[1]; [5],32.49
same,Liver Value,[1]; [5],55.20
same,Difference L − K value,[1]; [6],17.00
same,Kidney Value,[1]; [6],28.42
same,Liver Value,[1]; [6],45.42
same,Difference L − K value,[1]; [7],26.46
same,Kidney Value,[1]; [7],32.30
same,Liver Value,[1]; [7],58.77
same,Difference L − K value,[1]; [8],18.115
same,Kidney Value,[1]; [8],25.21
same,Liver Value,[1]; [8],43.33
same,liver fat as evidenced by ultrasound measurements,"[1]; groups A and B, end of the study",strongly statistically significant reduction
same,Difference (Liver Value − Kidney Value),[1]; [9],14.6 and 32.9 and 20.1 and 23.3 and 43.7 and 34.3
same,Kidney Value,[1]; [9],30.4 and 35.0 and 25.3 and 32.6 and 52.4 and 7.0
same,Liver Value,[1]; [9],45.0 and 67.9 and 45.4 and 55.9 and 96.1 and 41.3
same,Difference (Liver Value − Kidney Value),[1]; [10],5.5 and 9.8
same,Kidney Value,[1]; [10],75.0 and 75.2
same,Liver Value,[1]; [10],80.5 and 85.0
same,Difference (Liver Value − Kidney Value),[1]; [11],12.8 and 29.5 and 11.8 and 19 and 18.5 and 20.9
same,Kidney Value,[1]; [11],29.2 and 26.4 and 20.1 and 30.8 and 26.5 and 21.0
same,Liver Value,[1]; [11],42.0 and 55.9 and 31.9 and 49.8 and 45.0 and 41.9
same,Difference (Liver Value − Kidney Value),[1]; [12],16.7 and 10.3 and 24.4 and 1.6 and 17.6 and 9.4
same,Kidney Value,[1]; [12],81.1 and 60.0 and 64.5 and 57.3 and 67.6 and 48.1
same,Liver Value,[1]; [12],97.8 and 70.3 and 88.9 and 58.9 and 85.2 and 57.5
same,Difference (Liver Value − Kidney Value),[1]; [13],28.2 and 35.5 and 32.3 and 47.3 and 24.1 and 20.5 and 41 and 18.8
same,Kidney Value,[1]; [13],32.2 and 26.5 and 23.6 and 39.5 and 22.7 and 14.2 and 28.6 and 33.3
same,Liver Value,[1]; [13],60.4 and 62.0 and 55.9 and 86.8 and 46.8 and 34.7 and 69.6 and 52.1
same,Difference (Liver Value − Kidney Value),[1]; [14],7.9 and 5 and 17.3
same,Kidney Value,[1]; [14],31.2 and 41.0 and 42.8
same,Liver Value,[1]; [14],39.1 and 46.0 and 60.1
same,Difference (Liver Value − Kidney Value),[1]; [15],14.8 and 23.9 and 19 and 34.2 and 22.2 and 7.4 and 33.5 and 16.4
same,Kidney Value,[1]; [15],33.0 and 22.1 and 31.1 and 18.9 and 14.4 and 42.4 and 17.0 and 16.8
same,Liver Value,[1]; [15],47.8 and 46.0 and 50.1 and 53.1 and 36.6 and 49.8 and 50.5 and 33.2
same,Difference (Liver Value − Kidney Value),[1]; [16],13.2 and 8.9 and 22.1 and 10 and 18.3 and 13.7 and 6 and 16.8
same,Kidney Value,[1]; [16],61.7 and 53.0 and 55.2 and 84.3 and 55.9 and 71.5 and 75.3 and 40.4
same,Liver Value,[1]; [16],74.9 and 61.9 and 77.3 and 94.3 and 74.2 and 85.2 and 81.3 and 57.2
same,adverse reactions (side effects),[2],No adverse reactions (side effects) were noted
same,alanine aminotransferase,[3]; compared with placebo group,significantly decreased
same,aspartate aminotransferase,[3]; compared with placebo group,significantly decreased
same,glucose,[3]; compared with placebo group,significantly decreased
same,homeostasis model assessment insulin resistance index,[3]; compared with placebo group,significantly decreased
same,low-density lipoprotein cholesterol,[3]; compared with placebo group,significantly decreased
same,total cholesterol,[3]; compared with placebo group,significantly decreased
same,adiponectin level,[3]; resveratrol group,elevation
same,level of TNF-α,[3]; resveratrol group,significant reductions
same,level of cytokeratin 18 fragment,[3]; resveratrol group,significant reductions
same,level of fibroblast growth factor,[3]; resveratrol group,significant reductions
same,"total cholesterol, mean difference (MD) vs placebo","[4]; 95% CI: 0.18, 0.80, higher in resveratrol groups",0.49
same,"low-density lipoprotein, mean difference (MD) vs placebo","[4]; 95% CI: 0.21, 0.74, higher in resveratrol groups",0.47
same,effects on attenuating NAFLD,[4],negligible effects
